In test [1] the test system is spontaneously hypertensive rats (SHR). Description: Antihypertensive Activity in Rats (conscious SHR, oral). The class given is in vivo, rat (spontaneously hypertensive. To be noted: fasted SHR males. The source says: The present compounds are useful in inhibiting the phosphodiesterase enzymes. These phosphodiesterase enzymes are known to hydrolyze cGMP in smooth muscle. High levels of cGMP are associated with the relaxation of vascular smooth muscle, with a consequent subsequent reduction in blood pressure. Thus, it is believed that by inhibiting these phosphodiesterase enzymes, cGMP levels in muscle will be either maintained or increased with a subsequent reduction in blood pressure. In vivo antihypertensive activity is determined orally in spontaneously hypertensive rats (SHR). The ability of the compounds of the present invention to lower blood pressure can be assessed in vivo in conscious spontaneously hypertensive rats (SHR). SHR males are purchased from Taconic Farms, Germantown, N.Y. and are approximately 16-18 weeks old when anesthetized with ether. The caudal (ventral tail) artery is cannulated with polyethylene tubing (PE50) and blood pressure and heart rate are recorded as described by Baum, T. et. al, J. Cardiovasc. Pharmacol. Vol 5, pp. 655-667, (1983). Rats are placed into plastic cylindrical cages where they rapidly recover consciousness. Blood pressure and heart rate are allowed to stabilize for approximately 90 minutes prior to compound administration. Compounds are administered orally as solutions or suspensions in 0.4% aqueous methylcellulose vehicle via a feeding needle. […] Activity is expressed as the fall in mean blood pressure (MBP) in millimeters of mercury (mm Hg). Compound-induced changes are compared with the changes in an appropriate placebo group.

Test [2] addresses T1, calcium-calmodulin dependent phosphodiesterase (CaM-PDE) (Bos taurus, UniProt P14100).
T1 construct: partially pure enzyme obtained from bovine aorta homogenates; from tissue; host or cells: bovine aorta homogenates
Description: Phosphodiesterase Inhibition In Vitro: CaM-PDE. Type of test: biochemical, bovine (aorta). The following applies: 1 μM 3H-cGMP substrate, pH 7.5, 25 minutes, room temperature, with calmodulin and CaCl2. Here is the method:
(§1) Compounds are evaluated for inhibition of two phosphodiesterase enzymes which hydrolyze cyclic guanosine monophosphate (cGMP). The first enzyme, calcium-calmodulin dependent phosphodiesterase (CaM-PDE), is a partially pure enzyme obtained from bovine aorta homogenates and purified by DEAE-cellulose and calmodulin-affinity chromatography. The enzyme is activated several fold by Ca-calmodulin and is selective for cGMP, although it will also hydrolyze cAMP. […] Bovine aorta homogenates and primary cultures of bovine aortic endothelial and vascular smooth muscle cells contain an enzyme with properties very similar to the lung isozyme.
(§2) The enzyme assay is performed using a Biomek Automated Pipetting Station. Compounds are dissolved in distilled water or DMSO and diluted with 10% DMSO.
(§3) Assays contain the following components:
(§4) 50 mM Tris-HCl, pH 7.5, 5 mM magnesium chloride
(§5) 0.5 mg/ml snake venom alkaline phosphatase
0.1 μM Calmodulin and 1 mM CaCl2 (for CaM-PDE only)
(§6) Assays are initiated by addition of enzyme and stopped by addition of 10 mM isobutylmethylxanthine, a general phosphodiesterase inhibitor. Assays are performed for 25 minutes at room temperature to achieve 5-10% hydrolysis of substrate. The negatively charged substrates are then separated from guanosine by binding to an anion-exchange resin (AG1-X8) and centrifugation or filtration, and the product is quantitated by scintillation counting in counts per minute (cpm) of the remaining soluble material. Percent inhibition is calculated as follows:
(§7) % Inhibition=100-[(cpm compound-blank)/(cpm control-blank)×100]
(§8) Activity is expresssed as the IC50 value, i.e. the concentration required to inhibit activity of enzyme by 50 per cent.

For test [3], the target named is cGMP phosphodiesterase (cGMP-PDE) (Bos taurus, UniProt Q28156). Description: biochemical. Also on record: species or system bovine (lung). To be noted: 1 μM 3H-cGMP substrate, pH 7.5, 25 minutes, room temperature. Here is the method: as §1, §2, §3, §4, §5, §6, §7, §8

As for `Cc1nc2c(n1Cc1ccccc1)C(=O)N(C)C1=N[C@@H]3CCCCC[C@@H]3N12` (relative stereo) [Example 14, cis-5,6a,7,8,9,9a-Hexahydro-2,5-dimethyl-3-(phenylmethyl)cyclohept[6,7]imidazo[2,1-b]purin-4(3H)-one], the “SHR Antihypertensive Fall in MBP” value in test [1] (Dose 25 mpk) amounted to 20 mmHg. The concentration for half-maximal inhibition (IC50) in test [2] came out at 0.3 µM; in test [3], 0.9 µM.
For `CN1C(=O)c2c(ncn2Cc2ccccc2)N2C1=N[C@@H]1CCC[C@@H]12` (relative stereo) [Example 1, cis-5,6a,7,8,9,9a-Hexahydro-5-methyl-3-(phenylmethyl)cyclopent[4,5]imidazo[2,1-b]purin-4-one], in that order: 30 mmHg, 0.3 µM and 0.4 µM.
On to `Cc1nc2c(n1Cc1ccccc1)C(=O)N(C)C1=N[C@@H]3CCC[C@@H]3N12` (relative stereo) [Example 9, cis-5,6a,7,8,9,9a-Hexahydro-2,5-dimethyl-3-(phenylmethyl)cyclopent[4,5]imidazo[2,1-b]purin-4-(3H)-one], for which the “SHR Antihypertensive Fall in MBP” value in test [1] (Dose 25 mpk) is 36 mmHg. For the same molecule, the half-inhibitory concentration (IC50) in test [2] was 0.6 µM.
As to `CN1C(=O)c2c(ncn2Cc2ccccc2)N2CC3(CCCC3)N=C12` [Example 34, 5'-Methyl-3'-(phenylmethyl)-spiro[cyclopentane-1,7'(8'H)-(3'H)-imidazo[2,1-b]purin]-4'(5'H)one], in test [1] (Dose 25 mpk), the “SHR Antihypertensive Fall in MBP” value turned out to be 40 mmHg. Further, the IC50 in test [2] and in test [3] was 0.1 µM throughout.
As to `CCc1nc2c(n1Cc1ccccc1)C(=O)N(C)C1=N[C@@H]3CCCC[C@@H]3N12` (relative stereo) [Example 16, cis-6a,7,8,9,10,10a-Hexahydro-5-methyl-2-ethyl-3-(phenylmethyl)-3H-benzimidazo[2,1-b]purin-4(5H)-one], the “SHR Antihypertensive Fall in MBP” value in test [1] (Dose 25 mpk) stood at 23 mmHg. The IC50 was 0.1 µM in test [2] and 3 µM in test [3].
Turning to `CN1C(=O)c2c(ncn2CC2CCCCC2)N2C1=N[C@@H]1CCC[C@@H]12` (relative stereo) [Example 22, cis-5,6a,7,8,9,9a-Hexahydro-5-methyl-3-(cyclohexylmethyl)cyclopent[4,5]imidazo[2,1-b]purin-4(3H)-one], the “SHR Antihypertensive Fall in MBP” value in test [1] (Dose 25 mpk) came out at 15 mmHg. Besides, the IC50 in test [2] and in test [3] was 0.2 µM throughout.
For `Cc1nc2c([nH]1)C(=O)N(C)C1=N[C@@H]3CCC[C@@H]3N12` [Example 19a, cis-5,6a(R),7,8,9,9a(S)-Hexahydro-2,5-di-methylcyclopent[4,5]imidazo[2,1-b]purin-4(3H)-one], the “SHR Antihypertensive Fall in MBP” value in test [1] (Dose 25 mpk) is listed as 40 mmHg. Moreover, the IC50 in test [2] was 3 µM; in test [3] it was 0.3 µM.
As for `CN1C(=O)c2c(ncn2Cc2ccccc2)N2C1=N[C@@H]1CCC[C@@H]12` [Example 35, cis-5,6a(R),7,8,9,9a(S)-Hexahydro-5-methyl-3-(phenylmethyl)cyclopent[4,5]imidazo[2,1-b]purin-4(3H)one], in test [1] (Dose 25 mpk), the “SHR Antihypertensive Fall in MBP” value is given as 41 mmHg. The half-inhibitory concentration (IC50) was 0.4 µM in test [2] and 0.3 µM in test [3].
On the same counts, the results for `COC(=O)c1nc2c(n1Cc1ccccc1)C(=O)N(C)C1=N[C@@H]3CCC[C@@H]3N12` (relative stereo) [Example 28, cis-3,4,5,6a,7,8,9,9a-Octahydro-5-methyl-4-oxo-3-(phenylmethyl)cyclopent[4,5]imidazo[2,1-b]purin-2-carboxylic acid, methyl ester] are 19 mmHg, 0.2 µM and 0.2 µM.
On the same counts, the results for `CN1C(=O)c2c(ncn2Cc2ccccc2)N2C1=N[C@@H]1CCCC[C@@H]12` (relative stereo) [Example 3, cis-6a,7,8,9,10,10a-Hexahydro-5-methyl-3-(phenylmethyl)-3H-benzimidazo[2,1-b]purin-4(5H)-one] are 22 mmHg, 0.1 µM and 1.4 µM.
As for `Cc1nc2c([nH]1)C(=O)N(C)C1=NC34CCCC3CCC4N12.Cl` (single isomer, unassigned; (+)) [Example 41a, (+)-6a,7,8,9,9a,10,11,11a-Octahydro-2,5-dimethyl-3H-pentaleno[6a',1':4,5]imidazo[2,1-b]purin-4(5H)-one, hydrochloride], the results for the “SHR Antihypertensive Fall in MBP” value in test [1] (Dose 5 mpk), in test [1] (Dose 10 mpk) and in test [1] (Dose 25 mpk) were 45 mmHg, 52 mmHg and 67 mmHg, respectively. In addition, the concentration for half-maximal inhibition (IC50) in test [2] worked out at 0.2 µM; in test [3], 0.1 µM.
Take `CN1C(=O)c2c(ncn2Cc2ccc(Cl)cc2)N2C1=N[C@@H]1CCC[C@@H]12` (relative stereo) [Example 21, cis-5,6a,7,8,9,9a-Hexahydro-5-methyl-3-(4-chlorophenylmethyl)cyclopenta[4,5]imidazo[2,1-b]purin-4(3H)-one]: the “SHR Antihypertensive Fall in MBP” value in test [1] (Dose 25 mpk) came to 20 mmHg. Besides, the IC50 was determined as 3.3 µM in test [2] and 0.4 µM in test [3].
For `Cc1nc2c(n1Cc1ccccc1)C(=O)N(C)C1=NC34CCCC3CCC4N12` (single isomer, unassigned; (+)) [Example 39, (+) 6a,7,8,9,9a,10,11,11a-Octahydro-2,5-dimethyl-3-phenylmethyl-3H-pentaleno[6a',1':4,5]imidazo[2,1-b]purin-4(5H)-one], the “SHR Antihypertensive Fall in MBP” value in test [1] (Dose 25 mpk) amounted to 40 mmHg. The IC50 in test [2] and in test [3] was 0.1 µM in each case.
As to `Cc1nc2c(n1Cc1ccccc1)C(=O)N(C)C1=N[C@@H]3CCC[C@@H]3N12` [Example 10, 5,6a(R),7,8,9,9a(S)-Hexahydro-2,5-dimethyl-3-(phenylmethyl)cyclopent[4,5]imidazo[2,1-b]purin-4(3H)-one], the “SHR Antihypertensive Fall in MBP” value in test [1] (Dose 25 mpk) amounted to 45 mmHg. Also, the half-maximal inhibitory concentration (IC50) in test [2] worked out at 0.3 µM.
With `Cc1nc2c(n1Cc1ccccc1)C(=O)N(C)C1=N[C@@H]3CCCC[C@@H]3N12` (relative stereo) [Example 12, cis-6a,7,8,9,10,10a-Hexahydro-2,5-dimethyl-3-(phenylmethyl)-3H-benzimidazo[2,1-b]purin-4(5H)-one], the “SHR Antihypertensive Fall in MBP” value in test [1] (Dose 25 mpk) is recorded as 38 mmHg. The half-maximal inhibitory concentration (IC50) in test [2] and in test [3] was 0.2 µM throughout.
As to `Cc1nc2c(n1Cc1ccccc1)C(=O)N(C)C1=NC3(CCCC3)CN12` [Example 34a, 2',5'-Dimethyl-3'-(phenylmethyl)spiro[cyclopentane-1,7'(8'H)-(3'H)-imidazo[2,1-b]purin]-4'(5'H)one], in test [1] (Dose 25 mpk), the “SHR Antihypertensive Fall in MBP” value was 58 mmHg. The values for the IC50 in test [2] and in test [3] were 0.3 µM and 0.8 µM, respectively.
On the same counts, the results for `CN1C(=S)c2c(ncn2Cc2ccccc2)N2C1=N[C@@H]1CCC[C@@H]12` (relative stereo) [Example 20, cis-5,6a,7,8,9,9a-Hexahydro-5-methyl-3-(phenylmethyl)cyclopenta[4,5]imidazo[2,1-b]purin-4(3H)-thione] are 6 mmHg, 0.04 µM and 0.4 µM.

What is called IC50 is the point on the concentration scale where inhibition reaches its midpoint.
